# In article PMC10600247, “Impact of C- and N-terminal protection on the stability, metal chelation and antimicrobial properties of calcitermin” (Scientific Reports, 2023):
# Residues, ends and D or L forms follow the SMILES beside them.
# Experiments:
# [1] = From the text: Stability constants for proton and metal complexes were obtained from pH-metric titration curves registered at T = 298 K and ionic strength 0.1 M (KCl). The potentiometric apparatus was previously described. Solutions were titrated with 0.1 M carbonate-free KOH. The electrode was daily calibrated for hydrogen ion concentration by titrating HNO3 with the standard base solution, under the same experimental conditions as above. The asymmetry potential and the slope of the electrode couple were computed by means of […][41] and Glee[42] programs. The purities and exact concentrations of the ligand solutions were determined by the Gran method. The […][44] program was employed for the overall formation constant (β) calculations, referred to the following equilibrium equation: pM + qL + rH ⇆ MpLqHr (charges omitted; p is 0 in the case of ligand protonation; r can be negative). The computed standard deviations (referring to random errors only) were given by the program itself and are shown in parentheses as uncertainties on the last significant figure. Hydrolysis constants for metal ions were taken from the literature[45],[46]. The distribution and competition diagrams were computed using the HYSS program.
# 1. Wild-type calcitermin: thermodynamic data
# Wild-type calcitermin (WT) has been previously investigated by our research group in aqueous solutions and ionic medium NaClO4.1 For the sake of comparison, potentiometric studies of WT and its copper and zinc complexes have been performed in a different ionic medium (KCl 0.1 M). The study of the speciation under different experimental conditions, changing ionic medium and metal-ligand ratio, is essential to comprehensively describe the thermodynamics of calcitermin, which is usually found in multicomponent media like biological fluids.
# Table S1. Equilibrium constants for protonation of WT and its Cu2+ and Zn2+ complex formation at T = 298 K and I = 0.1 M (KCl). Values in parentheses are standard deviations on the last significant figure.
# E. coli (ATCC 25922) = experiment: In vitro anti-E. coli CFU assay; type: cell-based, Escherichia coli; settings: pH 5.4; for mean CFU number ± S.D.: per 0.1 mL
# Experimental: All microbes were grown at 37 °C in Tryptic Soy Broth (TSB; Biolife, Milan, Italy) or Tryptic Soy Agar plates (TSA, Biolife, Milan, Italy). Peptides were tested at a final concentration C = 0.128, 0.064, 0.032 mg/mL, in the presence or absence of ZnCl2 or CuCl2, at a M:L molar ratio 0.9:1. Briefly, all the microbes were expanded in TSB at 37 °C under agitation for 12 h and then sub-cultured by 1:10 dilution in TSB under the same conditions until reaching OD600nm = 0.3–0.4, as measured by spectrophotometric reading using a GENESYS 10S UV–Vis spectrophotometer (Thermo Scientific, Milan, Italy), corresponding to 0.9–1.2 × 10^7 colony forming units (CFU) per mL, 1.5–2 × 10^8 CFU/mL and 2.4–3.2 × 10^8 CFU/mL, for C. albicans, S. aureus and E. coli respectively. The cultures were then centrifuged at 4500 rpm for 10 min in a SL 8 centrifuge (TX-150 Rotor) (Thermo Scientific, Milan, Italy), and the cellular pellets were washed with PBS pH 5.4. Pelletized cultures were then suspended in 10 mL of PBS pH 5.4, then the suspensions were diluted to a final concentration of 10^4 CFU/mL. Aliquots of 100 µl (corresponding to 10^3 CFU) were seeded in each well of a 96-wells plate. 3 µl of TSB at pH 5.4 were added to each well to obtain a final 1.5% TSB concentration in the culture medium. Peptides were serially diluted in PBS pH 5.4 to C = 0.257, 0.128, and 0.064 mg/mL. ZnCl2 and CuCl2 solutions were added where requested to obtain a M:L ratio 0.9:1. 100 µl of the prepared peptides ± ZnCl2/CuCl2 solutions were then added to each well, obtaining the final 0.128, 0.064 and 0.032 mg/mL peptide concentrations in a total 0.2 mL volume. PBS alone and PBS + ZnCl2/CuCl2 solutions were included as controls. The plates were incubated at 37 °C on a platform rocker with slow stirring for 3 and 24 h. At the end of the incubation times, 100 µl aliquots were taken from each sample and diluted in PBS pH 5.4 to be seeded on TSA plates. Specifically, aliquots were diluted 1:10 at 3 h, and 1:200, 1:100,000 and 1:10 at 24 h, for C. albicans, E. coli, and S. aureus respectively. After incubation for 24 h at 37 °C, grown CFUs were enumerated. Samples were assayed in triplicate in two independent experiments. Student’s t-test was used for the evaluation of significance in biological tests; a p value ≤ 0.05 was considered significant.
# [2] = T = 298 K, I = 0.1 M (KCl), charges omitted
# [3] = peptide 0.032 mg/mL + CuCl2 (0.9:1), 24 h
# [4] = peptide 0.032 mg/mL + ZnCl2 (0.9:1), 24 h
# [5] = peptide 0.064 mg/mL + ZnCl2 (0.9:1), 24 h
# [6] = peptide 0.128 mg/mL + ZnCl2 (0.9:1), 24 h
# [7] = peptide alone 0.032 mg/mL, 24 h
# [8] = peptide alone 0.064 mg/mL, 24 h
structure (smiles),measurement,setting,value
"CC[C@H](C)[C@H](NC(=O)[C@H](C)NC(=O)[C@@H](NC(C)=O)C(C)C)C(=O)N[C@@H](C)C(=O)N[C@@H](CC(C)C)C(=O)N[C@@H](CCCCN)C(=O)N[C@@H](C)C(=O)N[C@@H](C)C(=O)N[C@@H](Cc1c[nH]cn1)C(=O)N[C@@H](Cc1ccc(O)cc1)C(=O)N[C@@H](Cc1c[nH]cn1)C(=O)N[C@H](C(=O)N[C@@H](Cc1c[nH]cn1)C(=O)N[C@@H](CCCCN)C(=O)N[C@@H](CCC(=O)O)C(=O)O)[C@@H](C)O [L1, Ac-VAIALKAAHYHTHKE] (Ac-VAIALKAAHYHTHKE-OH)",pKa [CuH2L],[1],4.40
same,pKa [CuH-1L],[1],6.88
same,pKa [CuHL],[1],5.38
same,pKa [CuL],[1],6.59
same,pKa [ZnHL],[1],5.80
same,pKa [ZnL],[1],7.33
same,logβ [CuH2L],[1]; [2],18.21(3)
same,logβ [CuH-1L],[1]; [2],1.84(3)
same,logβ [CuHL],[1]; [2],13.81(2)
same,logβ [CuL],[1]; [2],8.43(2)
same,logβ [ZnHL],[1]; [2],11.00(5)
same,logβ [ZnL],[1]; [2],5.21(2)
same,mean CFU number ± S.D.,"E. coli (ATCC 25922); peptide 0.032 mg/mL + CuCl2 (0.9:1), 3 h",372 ± 16 CFU
same,CFU decrease/increase with respect to untreated controls,E. coli (ATCC 25922); [3],-15%
same,mean CFU number ± S.D.,E. coli (ATCC 25922); [3],147 ± 6 CFU
same,mean CFU number ± S.D.,"E. coli (ATCC 25922); peptide 0.032 mg/mL + ZnCl2 (0.9:1), 3 h",343 ± 13 CFU
same,CFU decrease/increase with respect to untreated controls,E. coli (ATCC 25922); [4],-6%
same,mean CFU number ± S.D.,E. coli (ATCC 25922); [4],163 ± 18 CFU
same,mean CFU number ± S.D.,"E. coli (ATCC 25922); peptide 0.064 mg/mL + CuCl2 (0.9:1), 3 h",385 ± 24 CFU
same,mean CFU number ± S.D.,"E. coli (ATCC 25922); peptide 0.064 mg/mL + CuCl2 (0.9:1), 24 h",58 ± 8 CFU
same,mean CFU number ± S.D.,"E. coli (ATCC 25922); peptide 0.064 mg/mL + ZnCl2 (0.9:1), 3 h",198 ± 7 CFU
same,CFU decrease/increase with respect to untreated controls,E. coli (ATCC 25922); [5],-13%
same,mean CFU number ± S.D.,E. coli (ATCC 25922); [5],149 ± 7 CFU
same,mean CFU number ± S.D.,"E. coli (ATCC 25922); peptide 0.128 mg/mL + CuCl2 (0.9:1), 3 h",151 ± 30 CFU
same,mean CFU number ± S.D.,"E. coli (ATCC 25922); peptide 0.128 mg/mL + CuCl2 (0.9:1), 24 h",17 ± 18 CFU
same,mean CFU number ± S.D.,"E. coli (ATCC 25922); peptide 0.128 mg/mL + ZnCl2 (0.9:1), 3 h",45 ± 18 CFU
same,CFU decrease/increase with respect to untreated controls,E. coli (ATCC 25922); [6],+8%
same,mean CFU number ± S.D.,E. coli (ATCC 25922); [6],187 ± 12 CFU
same,mean CFU number ± S.D.,"E. coli (ATCC 25922); peptide alone 0.032 mg/mL, 3 h",749 ± 47 CFU
same,CFU decrease/increase with respect to untreated controls,E. coli (ATCC 25922); [7],+1%
same,mean CFU number ± S.D.,E. coli (ATCC 25922); [7],174 ± 6 CFU
same,mean CFU number ± S.D.,"E. coli (ATCC 25922); peptide alone 0.064 mg/mL, 3 h",634 ± 10 CFU
same,CFU decrease/increase with respect to untreated controls,E. coli (ATCC 25922); [8],-15%
same,mean CFU number ± S.D.,E. coli (ATCC 25922); [8],146 ± 17 CFU
same,mean CFU number ± S.D.,"E. coli (ATCC 25922); peptide alone 0.128 mg/mL, 3 h",625 ± 76 CFU
same,mean CFU number ± S.D.,"E. coli (ATCC 25922); peptide alone 0.128 mg/mL, 24 h",140 ± 11 CFU
